# Assay results as given in US9458086B1, “Compositions and methods for adipocyte modulation” (University of South Florida (A Florida Non-Profit …, priority 2013, dated 2016).
# Legend:
# PKCδII [1] = test: Western blot of PKCδII expression in differentiating 3T3L1 cells; type: cell-based, mouse; details: for inhibition of PKCδII expression levels: 25 μM administered on day 5 (mature adipocyte)
# Description: (§1) Mouse 3T3-L1 preadipocytes were purchased from ZenBio™ (Research Triangle Park, N.C., USA) and passaged as preconfluent cultures in DMEM high glucose (Invitrogen, Carlsbad, Calif.) with 10% newborn calf serum (Sigma-Aldrich, St. Louis, Mo.) at 37° C. and 10% CO2. Once confluent, cells were differentiated (day 0) in DMEM high glucose with 10% fetal bovine serum (Atlas Biological, Fort Collins, Colo.), 10 μg/mL bovine insulin (Sigma), […] dexamethasone (Sigma), and 0.5 mM isobutyl-1-methylxanthine (Sigma). On day 2, media was replaced with DMEM high glucose, 10% FBS, and bovine insulin. Day 4 and afterwards, cells were cultured in DMEM high glucose plus 10% FBS.
# (§2) Protein lysates were obtained from 3T3L1 cells using lysis buffer containing proteases. Protein lysates (40 μg) were separated by SDS-PAGE with 10% gels. Proteins were electrophoretically transferred to nitrocellulose membranes, blocked with Tris-buffered saline containing 0.1% Tween 20 and 5% nonfat dried milk, washed, and incubated with a polyclonal anti-PARP (Upstate Biotechnology), anti-XIAP (AnaSpec), anti-Bcl2, anti-caspase 9 (Calbiochem), anti-Bcl-x (Santa Cruz Biotechnology), and anti-PKCδ (Cell Signaling) or antibody against the hinge-region of PKCδII (Patel lab (19)). This antibody is specific for PKCδII, as it recognizes the extended hinge region, which is absent in PKCδI (24). Other antibodies used are as follows: PPARγ, Akt, pAkt 473, TNFα, Adiponectin, p-BAD (S316), p-PTEN (Cell Signaling, Boston, Mass.), β-actin A5441 (Sigma). After incubation with anti-rabbit IgG-HRP, enhanced chemiluminescence (Pierce) was used for detection. FluorChem M™ (Protein Simple) imaging system was used to capture digital chemiluminescence images and process western blots. Data was analyzed using AlphaView® software.
# PKCδI [2] = test: Western blot of PKCδI expression in differentiating 3T3L1 cells; type: cell-based, mouse
# Description: as §1, §2
# PPARγ = test: Western blot of PPARγ (adipogenesis marker) in differentiating 3T3L1 cells; type: cell-based, mouse
# Description: as §1, §2
# 3T3L1 adipocytes [3] = test: Oil Red O staining for lipid accumulation; type: cell-based, mouse; details: 25 μM on day 4, Oil Red O staining on day 8
# Description: as §1
# 3T3L1 preadipocytes were washed with PBS and fixed with 10% formalin for 30 minutes. The cells were then rinsed and incubated with 60% isopropanol for 5 minutes. Oil Red O stain (0.15%, Sigma) was added and incubated for 10 minutes. Images were captured with Nixon confocal microscope.
# 3T3L1 adipocytes [4] = test: Apoptosis assay, Annexin V-PI staining by flow cytometry; type: cell-based, mouse
# Description: as §1
# 3T3L1 preadipocytes were cultured on 60 mm dishes as described above. For apoptosis assays, cells were serum-starved for 48 hours. Media were collected and cells were washed one time with HBSS and then trypsinized for 5.0 minutes. Five ml complete media was added to neutralize the trypsin. Media and washes were pooled and centrifuged at 1200 RPMS for five minutes. […] 400 μl binding buffer was added and cells were analyzed by flow cytometry within one hour Annexin V-FITC and PI fluorescence, which stains apoptotic cells, were measured using an Accuri C6 flow cytometer.
# PKCδII [5] = test: PCR of PKCδII in adipose tissue of mice fed resveratrol; type: in vivo, mouse; details: 400 mg resveratrol per kg body weight in diet, once daily
# Description: (§3) Total RNA was obtained from mouse adipose tissues from Dr. You (University of South Florida). 8-week old male C57BL/6J (Jackson labs) were either fed a chow diet (control) or diet with added 400 mg resveratrol per kg body weight, once daily 23); n=5. Total RNA was extracted from adipose tissues from these mice. All protocols were reviewed and approved by the Institutional Animal Care and Use Committee at University of South Florida, Division of Comparative Medicine.
# (§4) Total RNA was isolated from 3T3L1 cells with RNA-Bee (Tel Test Center) as recommended by the manufacturer. RNA was also obtained from adipose tissues of mice fed with or without resveratrol. 2 μg RNA was used to synthesize first-strand cDNA with an Oligo(dT) primer and Omniscript R kit (Qiagen). The following primers were used in PCR: PKCδ forward primer 5′ […] 3′ (SEQ ID NO:1); reverse primer 5′ […] 3′ (SEQ ID NO:2). These primers amplified PKCδI and PKCδII simultaneously. PKCδII-specific antisense primer (5′ […]3′) (SEQ ID NO:3). β-actin forward primer 5′ […] 3′ (SEQ ID NO:4); reverse primer 5′ […] 3′ (SEQ ID NO:5). Following PCR, 5% of products were resolved on 6% PAGE gels and detected by silver staining. The PCR reaction was optimized for linear range amplification to allow for quantification of products. Densitometric analyses of the bands were done using the Un-Scan IT™ Analysis Software (Silk Scientific).
# PKCδI [6] = test: PCR of PKCδI in adipose tissue of mice fed resveratrol; type: in vivo, mouse; details: 400 mg resveratrol per kg body weight in diet, once daily
# Description: as §3, §4
# 3T3L1 preadipocytes = test: Resveratrol dose finding in differentiating 3T3L1 preadipocytes; type: cell-based, mouse; details: doses 10 to 100 μM tested, data not shown
# Description: as §1
# Several studies have shown its role in inhibiting adipose cell proliferation, lipid accumulation and stimulation of apoptosis and lipolysis in mature adipocytes. Further, resveratrol is shown to modulate alternative splicing of genes (29). However, its mechanisms of action and target proteins in apoptotic pathways during adipogenesis was not determined. […] Resveratrol treatment administered on day 5 (mature adipcoyte) inhibited PKCδII expression levels by 65% on day 6 and by more than 90% on day 8 (FIG. 7I a, b, c). Simultaneously, up to a 50% increase in PKCδI levels was observed on days 6 and 8.
# TNFα = details: mice, 400 mg resveratrol; earlier studies (23); cited from earlier work
# SIRT1 = details: mice, 400 mg resveratrol; earlier studies (23); cited from earlier work
# PKCδII [7] = test: RT-PCR of PKCδII splicing/mRNA in differentiating 3T3L1 preadipocytes; type: cell-based, mouse
# Description: as §1
# Total RNA was isolated from 3T3L1 cells with RNA-Bee (Tel Test Center) as recommended by the manufacturer. RNA was also obtained from adipose tissues of mice fed with or without resveratrol. 2 μg RNA was used to synthesize first-strand cDNA with an Oligo(dT) primer and Omniscript R kit (Qiagen). The following primers were used in PCR: PKCδ forward primer 5′ […] 3′ (SEQ ID NO:1); reverse primer 5′ […] 3′ (SEQ ID NO:2). These primers amplified PKCδI and PKCδII simultaneously. […] Following PCR, 5% of products were resolved on 6% PAGE gels and detected by silver staining. The PCR reaction was optimized for linear range amplification to allow for quantification of products. […]
# [8] = system: cPKCs: α, βI, βII, γ; nPKCs: η, ε, θ; aPKCs: ζ, λ; test: Immunoblotting for other PKC family isoforms (specificity); type: cell-based, mouse; details: SEAM treatment (200 nM)
# Description: as §1
# Protein lysates were obtained from 3T3L1 cells using lysis buffer containing proteases. Protein lysates (40 μg) were separated by SDS-PAGE with 10% gels. […] Data was analyzed using AlphaView® software.
# 3-hydroxystilbene was modified by Mannich coupling to add bis-diethylaminomethyl group (described in Example 1). Several synthetic stilbenoids with structural modifications to the basic resveratrol structure were evaluated. […]
# Bcl2 = test: Western blot of Bcl2 in 3T3L1 cells; type: cell-based, mouse; details: SEAM treatment (200 nM)
# Description: as §1
# (§5) Protein lysates were obtained from 3T3L1 cells using lysis buffer containing proteases. Protein lysates (40 μg) were separated by SDS-PAGE with 10% gels. Proteins were electrophoretically transferred to nitrocellulose membranes, blocked with Tris-buffered saline containing 0.1% Tween 20 and 5% nonfat dried milk, washed, and incubated with a polyclonal anti-PARP (Upstate Biotechnology), anti-XIAP (AnaSpec), anti-Bcl2, anti-caspase 9 (Calbiochem), anti-Bcl-x (Santa Cruz Biotechnology), and anti-PKCδ (Cell Signaling) or antibody against the hinge-region of PKCδII (Patel lab (19)). […] Data was analyzed using AlphaView® software.
# Bcl-xL = test: Western blot of Bcl-xL in 3T3L1 cells; type: cell-based, mouse; details: SEAM treatment (200 nM)
# Description: as §1, §5
# adiponectin = test: Western blot of adiponectin in 3T3L1 cells; type: cell-based, mouse; details: SEAM treatment, days 4 and 8
# Description: as §1, §5
# 3T3L1 cells = test: Cytotoxicity assay / cell viability; type: cell-based, mouse; details: 200 nM SEAM in 3T3L1 cells
# Description: WST-1 (Roche Molecular Biochemicals, IN) was added to 3T3L1 cells (in triplicate) that are treated without or with SEAM to a final concentration of 10% (vol/vol). Cells were incubated for 2 hours at 37° C. The formazon dye produced by viable cells was quantified using a spectrophotometer set at a wavelength of 440 nm and absorbance recorded for each well (reference wavelength, 690 nm).
# Immunoblotting for PPARγ and adiponectin was also performed to determine whether SEAM affected differentiation of 3T3L1 cells. […] Total apoptosis was measured by flow cytometry using Annexin V-PI staining (FIG. 8d). To determine whether SEAM was toxic to cells, cell viability was evaluated upon treatment of 200 nM SEAM in 3T3L1 cells. Cytotoxicity was measured using the […] assay. This assay measures the reducing potential of the cell using a colorimetric reaction. Viable cells reduce the […] to a colored formazan product.
# [9] = system: PKCδ exon 9 5′ splice site II; test: pSPL3-PKCδ splicing minigene RT-PCR; type: cell-based, mouse; details: 200 nM SEAM, 24 hours after minigene transfection, harvested on day 2
# Description: The pSPL3 vector was modified to remove cryptic 5′ splice sites as described in a previous publication (25). The pSPL3 vector was digested with BamHI (in the MCS) and NheI. Primers to amplify genomic PKCδ from 3T3L1 cells flanked mouse PKCδ exon 9 and were designed to include the BclI site in the forward primer (in bold type) and BcuI site in the reverse primers (in bold type). The forward primer was designed to amplify 137 bp of 3′ intronic sequence such that the product contained the branch point and 3′ splice site and the reverse primer included 284 bp 5′ intronic sequence and included the 5′ splice site II of exon 9. The primers were: forward primer 5′ […] 3′ (SEQ ID NO:6); reverse primer 5′ […] 3′ (SEQ ID NO:7). The product was verified by sequencing and ligated into the digested pSPL3 vector. The overhangs of the selected restriction enzymes can hybridize and this enabled cloning of the PCR product in the proper orientation. The resulting pSPL3-PKCδ minigene was verified by restriction digestion and sequencing.
# Splicing minigenes are advantageous to study alternative splicing events without influence from endogenous factors. […] Utilization of 5′ splice site I on exon 9 gave rise to PKCδI while utilization of downstream 5′ splice site II gave rise to PKCδII. After 24 hours, the cells were treated with 200 nM SEAM. […]
compound,measurement,setting,value
"Oc1ccc(C=Cc2cc(O)cc(O)c2)cc1 [resveratrol, 3,5,4′-trihydroxystilbene]",decrease in PKCδII expression,PKCδII [1]; 25 μM administered on day 0 (preadipocyte),less than 10%
same,inhibition of PKCδII expression levels,PKCδII [1]; read on day 6,65%
same,inhibition of PKCδII expression levels,PKCδII [1]; read on day 8,more than 90%
same,increase in PKCδI levels,"PKCδI [2]; 25 μM resveratrol, days 6 and 8",≤ 50%
same,PPARγ2 levels,"PPARγ; 25 μM resveratrol, day 8",inhibition of PPARγ2 levels
same,decline of PPARγ1 levels,"PPARγ; 25 μM resveratrol, day 8",30%
same,decline in lipid accumulation compared to control,3T3L1 adipocytes [3],greater than 75%
same,adipocytes undergoing apoptosis,"3T3L1 adipocytes [4]; 25 μM on day 2, collected on day 8",70%
same,decrease in PKCδII expression in adipose tissue,PKCδII [5],70%
same,increase in PKCδI expression in adipose tissue,PKCδI [6],25%
same,effect on the cells,3T3L1 preadipocytes; 100 μM resveratrol,detrimental to the cells
same,optimal dose,3T3L1 preadipocytes,25 µM
same,TNFα levels in adipose tissue,TNFα,decreased
same,SIRT1 levels in adipose tissue,SIRT1,increased
CCN(CC)Cc1ccc(/C(C)=C(\C)c2ccc(CN(CC)CC)c(O)c2)cc1O [SEAM],PKCδI expression,"PKCδI [2]; 100 nM, data not shown",not affected
same,PKCδI levels,PKCδI [2]; SEAM treatment (200 nM),did not affect
same,decrease of PPARγ2 compared to control,"PPARγ; SEAM treatment, days 4 and 8",5%
same,apoptosis levels,"3T3L1 adipocytes [4]; 200 nM SEAM, Annexin V-PI staining",increased compared to control
same,inhibition of PKCδII splicing,"PKCδII [7]; 100 nM, data not shown",60%
same,decrease of PKCδII compared to control cells,PKCδII [7]; 200 nM,80%
same,expression levels of other PKC isoforms,[8],did not affect
same,decrease of Bcl2 levels,Bcl2,40%
same,decrease of BclxL levels,Bcl-xL,20%
same,decrease of adiponectin compared to control,adiponectin,20%
same,cell viability,3T3L1 cells,viable
same,utilization of 5′ splice site II,[9],inhibited
